Holding throughout (type): in vivo
The test system of series [1] is Yellow Fever Mosquito (Aedes aegypti, AEDSAE). Description: Insecticidal test for yellow fever mosquito (YFM), 96-well plate larval assay. Conditions: from 4000 ppm DMSO master solution, diluted; about 1 day-old larvae; room temperature; scored after 3 days. The method, then:
Insecticidal Test for Yellow Fever Mosquito (Aedes aegypti, AEDSAE) (“YFM”)
Master plates containing 400 μg of a molecule dissolved in 100 μL of dimethyl sulfoxide (DMSO) (equivalent to a 4000 ppm solution) are used. A master plate of assembled molecules contains 15 μL per well. To this plate, 135 μL of a 90:10 water/acetone mixture is added to each well. A robot (Biomek® NXP Laboratory Automation Workstation) is programmed to dispense 15 μL aspirations from the master plate into an empty 96-well shallow plate (“daughter” plate). There are 6 reps (“daughter” plates) created per master. The created “daughter” plates are then immediately infested with YFM larvae.
The day before plates are to be treated, mosquito eggs are placed in Millipore water containing liver powder to begin hatching (4 g. into 400 mL). After the “daughter” plates are created using the robot, they are infested with 220 μL of the liver powder/larval mosquito mixture (about 1 day-old larvae). After plates are infested with mosquito larvae, a non-evaporative lid is used to cover the plate to reduce drying. Plates are held at room temperature for 3 days prior to grading. After 3 days, each well is observed and scored based on mortality.

The test system of series [2] is Beet Armyworm (Spodoptera exigua, LAPHEG). Description: Insecticidal test for beet armyworm (BAW), 128-well diet tray assay. To be noted: 168 h, 50 μg/cm^2 of test compound on artificial diet, second instar larvae, 25° C., five to seven days, average of eight wells, read-out: BAW % Control (or Mortality) rating. The method, then:
Insecticidal Test for Beet Armyworm (Spodoptera exigua, LAPHEG) (“BAW”)
(§1) Bioassays on beet armyworm (BAW; Spodoptera exigua: Lepidoptera) are conducted using a 128-well diet tray assay. One to five second instar BAW larvae are placed in each well (3 mL) of the diet tray that had been previously filled with 1 mL of artificial diet to which 50 μg/cm^2 of the test compound (dissolved in 50 μL of 90:10 acetone-water mixture) had been applied (to each of eight wells) and then allowed to dry. Trays are covered with a clear self-adhesive cover, vented to allow gas exchange, and held at 25° C., 14:10 light-dark for five to seven days. Percent mortality is recorded for the larvae in each well; activity in the eight wells is then averaged.

Series [3] concerns Cabbage Looper (Trichloplusia Ni, TRIPNI). Description: Insecticidal test for cabbage looper (CL), 128-well diet tray assay. Conditions: Trichoplusia ni, 168 h, read-out: CL % Control (or Mortality) rating. The method, then: Insecticidal Test for Cabbage Looper (Trichloplusia Ni, TRIPNI) (“CL”)
as §1, with “cabbage looper (CL; Trichloplusia ni:” for “beet armyworm (BAW; Spodoptera exigua:”, “CL” for “BAW”

Each structure is given as a SMILES string.

For the molecule `O=C(/N=C1\SCC(=O)N1c1cc(Cl)ccc1OCC(F)(F)F)NCCc1ccc(NC(=O)Nc2ccc(OC(F)(F)F)cc2)cc1` [Compound A17, (Z)-1-(4-(2-(3-(3-(5-Chloro-2-(2,2,2-trifluoroethoxy)phenyl)-4-oxothiazolidin-2-ylidene)ureido)ethyl)phenyl)-3-(4-(trifluoromethoxy)phenyl)urea], in series [1], the “YFM % Control (or Mortality) rating” value was “A (80-100)”. The mortality at 50 µg/cm2 in series [2] and in series [3] was 50 to 100% in each case.

For the molecule `CCCc1ccc(OC)cc1N1C(=O)CS/C1=N\C(=O)NCCc1ccc(NC(=O)Nc2ccc(OC(F)(F)F)cc2)cc1` [Compound A18, (Z)-1-(4-(2-(3-(3-(5-Methoxy-2-propylphenyl)-4-oxothiazolidin-2-ylidene)ureido)ethyl)phenyl)-3-(4-(trifluoromethoxy)phenyl)urea], the “YFM % Control (or Mortality) rating” value in series [1] is reported as “B (More than 0-Less than 80)”. The mortality at 50 µg/cm2 in series [2] and in series [3] was 50 to 100% each time.

For `Cc1ccc(OCC(F)(F)F)c(N2C(=O)CS/C2=N\C(=O)NCCc2ccc(NC(=O)Nc3ccc(OC(F)(F)F)cc3)cc2)c1` [Compound A19, (Z)-1-(4-(2-(3-(3-(5-Methyl-2-(2,2,2-trifluoroethoxy)phenyl)-4-oxothiazolidin-2-ylidene)ureido)ethyl)phenyl)-3-(4-(trifluoromethoxy)phenyl)urea], the “YFM % Control (or Mortality) rating” value in series [1] is listed as “B (More than 0-Less than 80)”. Further, the mortality at 50 µg/cm2 in series [2] and in series [3] was 50 to 100% each time.

On to `CCC(C)Oc1ccc(C)cc1N1C(=O)CS/C1=N\C(=O)NCCc1ccc(NC(=O)Nc2ccc(OC(F)(F)F)cc2)cc1` (stereo not drawn) [Compound A20], for which the “YFM % Control (or Mortality) rating” value in series [1] is “B (More than 0-Less than 80)”. Moreover, the mortality at 50 µg/cm2 in series [2] and in series [3] was 50 to 100% each time.

Consider `COc1ccc(N2C(=O)CS/C2=N\C(=O)NCCc2ccc(NC(=O)Nc3ccc(OC(F)(F)F)cc3)cc2)c(C)c1` [Compound A21, (Z)-1-(4-(2-(3-(3-(4-methoxy-2-methylphenyl)-4-oxothiazolidin-2-ylidene)ureido)ethyl)phenyl)-3-(4-(trifluoromethoxy)phenyl)urea], for which, in series [1], the “YFM % Control (or Mortality) rating” value is given as “A (80-100)”. In addition, the mortality at 50 µg/cm2 in series [2] and in series [3] was 50 to 100% each time.

`Cc1ccc(C(C)C)c(-n2ccs/c2=N\C(=O)NCCc2ccc(NC(=O)Nc3ccc(OC(F)(F)F)cc3)cc2)c1` [Compound A22, (Z)-1-(4-(2-(3-(3-(2-Isopropyl-5-methylphenyl)thiazol-2(3H)-ylidene)ureido)ethyl)phenyl)-3-(4-(trifluoromethoxy)phenyl)urea]: the “YFM % Control (or Mortality) rating” value in series [1] is recorded as “A (80-100)”. Also, the mortality at 50 µg/cm2 in series [2] and in series [3] was 50 to 100% in each case.

Regarding `CCc1cccc(C)c1N1C(=O)CS/C1=N\C(=O)NCCc1ccc(NC(=O)Nc2ccc(OC(F)(F)F)cc2)cc1` [Compound A23, (Z)-1-(4-(2-(3-(3-(2-Ethyl-6-methylphenyl)-4-oxothiazolidin-2-ylidene)ureido)ethyl)phenyl)-3-(4-(trifluoromethoxy)phenyl)urea], the “YFM % Control (or Mortality) rating” value in series [1] was “A (80-100)”. Also, the mortality at 50 µg/cm2 in series [2] and in series [3] was 50 to 100% each time.

In the case of `O=C(/N=C1\SCC(=O)N1c1cccc2c1CCCC2)NCCc1ccc(NC(=O)Nc2ccc(OC(F)(F)F)cc2)cc1` [Compound A24, (Z)-1-(4-(2-(3-(4-Oxo-3-(5,6,7,8-tetrahydronaphthalen-1-yl)thiazolidin-2-ylidene)ureido)ethyl)phenyl)-3-(4-(trifluoromethoxy)phenyl)urea], the “YFM % Control (or Mortality) rating” value in series [1] was “B (More than 0-Less than 80)”. Also, the mortality at 50 µg/cm2 in series [2] and in series [3] was 50 to 100% each time.

For `Cc1cc(N2C(=O)CS/C2=N\C(=O)NCCc2ccc(NC(=O)Nc3ccc(OC(F)(F)F)cc3)cc2)c(C(C)C)cc1F` [Compound A25, (Z)-1-(4-(2-(3-(3-(4-Fluoro-2-isopropyl-5-methylphenyl)-4-oxothiazolidin-2-ylidene)ureido)ethyl)phenyl)-3-(4-(trifluoromethoxy)phenyl)urea], the “YFM % Control (or Mortality) rating” value in series [1] is given as “A (80-100)”. The mortality at 50 µg/cm2 in series [2] and in series [3] was 50 to 100% in each case.

Regarding `Cc1ccc(C(C)C)c(N2C(=O)CS/C2=N\C(=O)NC(C)Cc2ccc(NC(=O)Nc3ccc(OC(F)(F)F)cc3)cc2)c1` (stereo not drawn) [Compound A26, (Z)-1-(3-(2-Isopropyl-5-methylphenyl)-4-oxothiazolidin-2-ylidene)-3-(1-(4-(3-(4-(trifluoromethoxy)phenyl)ureido)phenyl)propan-2-yl)urea], in series [1], the “YFM % Control (or Mortality) rating” value was “A (80-100)”. Besides, the mortality at 50 µg/cm2 in series [2] and in series [3] was 50 to 100% throughout.

Regarding `Cc1ccc(C(C)C)c(N2C(=O)CS/C2=N\C(=O)NC(C)Cc2ccc(NC(=O)Nc3ccc(C(F)(F)F)cc3)cc2)c1` (stereo not drawn) [Compound A27, (Z)-1-(4-(2-(3-(3-(2-Isopropyl-5-methylphenyl)-4-oxothiazolidin-2-ylidene)ureido)propyl)phenyl)-3-(4-(trifluoromethyl)phenyl)urea], the “YFM % Control (or Mortality) rating” value in series [1] is recorded as “A (80-100)”. Also, the mortality at 50 µg/cm2 in series [2] and in series [3] was 50 to 100% each time.

`CC(Cc1ccc(NC(=O)Nc2ccc(C(F)(F)F)cc2)cc1)NC(=O)/N=C1\SCC(=O)N1c1ccccc1C(C)C` (stereo not drawn) [Compound A28, (Z)-1-(4-(2-(3-(3-(2-Isopropylphenyl)-4-oxothiazolidin-2-ylidene)ureido)propyl)phenyl)-3-(4-(trifluoromethyl)phenyl)urea]: the “YFM % Control (or Mortality) rating” value in series [1] is “A (80-100)”. Further, the mortality at 50 µg/cm2 in series [2] and in series [3] was 50 to 100% throughout.

In the case of `CC(Cc1ccc(NC(=O)Nc2ccc(C(F)(F)F)cc2)cc1)NC(=O)/N=C1\SCC(=O)N1c1cc(Cl)ccc1C(C)C` (stereo not drawn) [Compound A29, (Z)-1-(4-(2-(3-(3-(5-Chloro-2-isopropylphenyl)-4-oxothiazolidin-2-ylidene)ureido)propyl)phenyl)-3-(4-(trifluoromethyl)phenyl)urea], in series [1], the “YFM % Control (or Mortality) rating” value is “A (80-100)”. Moreover, the mortality at 50 µg/cm2 in series [2] and in series [3] was 50 to 100% throughout.

As for `CCC(C)Oc1ccc(C)cc1N1C(=O)CS/C1=N\C(=O)NC(C)Cc1ccc(NC(=O)Nc2ccc(C(F)(F)F)cc2)cc1` (stereo not drawn) [Compound A30, (Z)-1-(4-(2-(3-(3-(2-(sec-Butoxy)-5-methylphenyl)-4-oxothiazolidin-2-ylidene)ureido)propyl)phenyl)-3-(4-(trifluoromethyl)phenyl)urea], the “YFM % Control (or Mortality) rating” value in series [1] is listed as “B (More than 0-Less than 80)”. Also, the mortality at 50 µg/cm2 in series [2] and in series [3] was 50 to 100% in each case.

Turning to `COc1ccc(N2C(=O)CS/C2=N\C(=O)NC(C)Cc2ccc(NC(=O)Nc3ccc(C(F)(F)F)cc3)cc2)c(C)c1` (stereo not drawn) [Compound A31, (Z)-1-(4-(2-(3-(3-(4-Methoxy-2-methylphenyl)-4-oxothiazolidin-2-ylidene)ureido)propyl)phenyl)-3-(4-(trifluoromethyl)phenyl)urea], the “YFM % Control (or Mortality) rating” value in series [1] is recorded as “A (80-100)”. Moreover, the mortality at 50 µg/cm2 fell in the range of 0 to 50% in series [2] and 50 to 100% in series [3].

As to `Cc1ccc(C(C)C)c(-n2ccs/c2=N\C(=O)NC(C)Cc2ccc(NC(=O)Nc3ccc(OC(F)(F)F)cc3)cc2)c1` (stereo not drawn) [Compound A33, (Z)-1-(4-(2-(3-(3-(2-Isopropyl-5-methylphenyl)thiazol-2(3H)-ylidene)ureido)propyl)phenyl)-3-(4-(trifluoromethoxy)phenyl)urea], in series [1], the “YFM % Control (or Mortality) rating” value was “A (80-100)”. Besides, the mortality at 50 µg/cm2 in series [2] and in series [3] was 50 to 100% throughout.

Consider `CC(Cc1ccc(NC(=O)Nc2ccc(OC(F)(F)F)cc2)cc1)NC(=O)/N=C1\SCC(=O)N1c1ccccc1C(C)C` (stereo not drawn) [Compound A34, (Z)-1-(4-(2-(3-(3-(2-Isopropylphenyl)-4-oxothiazolidin-2-ylidene)ureido)propyl)phenyl)-3-(4-(trifluoromethoxy)phenyl)urea], for which, in series [1], the “YFM % Control (or Mortality) rating” value is on record as “A (80-100)”. Moreover, the mortality at 50 µg/cm2 in series [2] and in series [3] was 50 to 100% throughout.

Broadly, the mortality is the percentage killed.

(Values after patent US11332452B2, “Pesticidal compositions and methods” (priority 2019, dated 2022).)
